Assay results from PubChem BioAssay AID1259411 (Chemical Carcinogenesis Research Information System (CCRIS), 2018).
Calls of active or inactive are those of the source. The rule behind the calls is not given here.

Tested on: rodent carcinogenicity bioassays, tumor incidence
Assay: CCRIS carcinogenicity studies
Outline: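 NCI-built, expert-reviewed records of carcinogenicity and related test outcomes (mutagenicity, tumor promotion/inhibition) compiled from published and report sources, historical span 1985-2011, not updated.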

Which results are given for `Cc1cc2ccccc2c2cc([N+](=O)[O-])c3ccccc3c12`?
carcinogen call (Species: MOUSE, Strain/Sex: SWISS/FEMALE, Route: INTRAPERITONEAL, Dose: 0, 100 NMOL (TOTAL DOSE) ADMINISTERED 1/7, 2/7 AND 4/7 ON DAY 1, 8 AND 15 RESPECTIVELY (STUDY DURATION: 32 WK), Tumor Site: Type of Lesion: LUNG: TUMOR): active; positive; carcinogen call (Species: MOUSE, Strain/Sex: SWISS/MALE, Route: INTRAPERITONEAL, Dose: 0, 100 NMOL (TOTAL DOSE) ADMINISTERED 1/7, 2/7 AND 4/7 ON DAY 1, 8 AND 15 RESPECTIVELY (STUDY DURATION: 32 WK), Tumor Site: Type of Lesion: LIVER: TUMOR, LUNG: TUMOR): active; positive

How did the carcinogen call (Species: MOUSE, Route: DERMAL, Tumor Site: Type of Lesion: INTEGUMENTARY SYSTEM (SKIN)) turn out when `CN(C)C(=O)Cl` was run?
Its carcinogen call is “active; positive”.

And the carcinogen call (Species: MOUSE, Route: INTRAPERITONEAL, SUBCUTANEOUS, Tumor Site: Type of Lesion: INJECTION SITE)?
Its carcinogen call is “active; positive”.

`O=Nc1ccc(NO)cc1` was tested. Which carcinogen call (Species: MOUSE, Strain/Sex: B6C3F1/FEMALE, Route: ORAL, Dose: 0, 750, 1500 PPM IN DIET FOR 104 WK (STUDY DURATION: 105 WK), Dose: 0, 750, 1500 PPM IN DIET FOR 104 WK (STUDY DURATION: 105 WK)) did it give?
The carcinogen call was “inactive; negative”.

What about the carcinogen call (Species: MOUSE, Strain/Sex: B6C3F1/MALE, Route: ORAL, Dose: 0, 750, 1500 PPM IN DIET FOR 104 WK (STUDY DURATION: 105 WK), Dose: 0, 750, 1500 PPM IN DIET FOR 104 WK (STUDY DURATION: 105 WK)) of the same molecule?
The carcinogen call was “inactive; negative”.

And the carcinogen call (Species: RAT, Strain/Sex: F344/FEMALE, Route: ORAL, Dose: 0, 375, 750 PPM IN DIET FOR 104 WK (STUDY DURATION: 105 WK), Dose: 0, 375, 750 PPM IN DIET FOR 104 WK (STUDY DURATION: 105 WK), Tumor Site: Type of Lesion: URINARY BLADDER: TRANSITIONAL CELL CARCINOMA, TRANSITIONAL CELL PAPILLOMA OR SQUAMOUS CELL CARCINOMA)?
The carcinogen call was “active; positive”.

What about the carcinogen call (Species: RAT, Strain/Sex: F344/MALE, Route: ORAL, Dose: 0, 375, 750 PPM IN DIET FOR 104 WK (STUDY DURATION: 105 WK), Dose: 0, 375, 750 PPM IN DIET FOR 104 WK (STUDY DURATION: 105 WK)) of the same molecule?
Its carcinogen call is “inactive; negative”.

How did the carcinogen call (Species: HUMAN, Route: ORAL, Tumor Site: Type of Lesion: LIVER) turn out when `COc1cc2c(c3oc(=O)c4c(c13)CCOC4=O)[C@@H]1C=CO[C@@H]1O2` was run?
The carcinogen call was “active; positive”.

What about the carcinogen call (Species: RAT, Route: ORAL, Tumor Site: Type of Lesion: KIDNEY) of the same molecule?
Its carcinogen call is “active; positive”.

With `C/[N+]([O-])=N/CO` as the molecule, how does the carcinogen call (Species: HAMSTER, Strain/Sex: SYRIAN/MALE,FEMALE, Route: INTRAVENOUS, Dose: 10 MG/KG BW, 4-5 INJ, Tumor Site: Type of Lesion: LIVER: CYSTADENOMA AND CYSTIC LESIONS, VASCULAR TUMOR, HEPATOCELLULAR CARCINOMA, INTESTINES (LARGE): ADENOMA, ADENOCARCI) read?
The carcinogen call was “active; positive”.

And the carcinogen call (Species: HAMSTER, Strain/Sex: SYRIAN/MALE,FEMALE, Route: INTRAVENOUS, Dose: 15 MG/KG BW, 4-5 INJ, Tumor Site: Type of Lesion: LIVER: CYSTADENOMA AND CYSTIC LESIONS, VASCULAR TUMOR, HEPATOCELLULAR CARCINOMA, INTESTINES (LARGE): ADENOMA, ADENOCARCI)?
The carcinogen call was “active; positive”.

And the carcinogen call (Species: HAMSTER, Strain/Sex: SYRIAN/MALE,FEMALE, Route: INTRAVENOUS, Dose: 20 MG/KG BW, 3 INJ, Tumor Site: Type of Lesion: LIVER: CYSTADENOMA AND CYSTIC LESIONS, GALL BLADDER: ADENOCARCINOMA, INTESTINES (LARGE): ADENOCARCINOMA, Tumor Site: Type of Lesion: LIVER: CYSTADENOMA AND CYSTIC LESIONS, GALL BLADDER: ADENOCARCINOMA, INTESTINES (LARGE): ADENOCARCINOMA)?
The carcinogen call was “active; positive”.

And the carcinogen call (Species: HAMSTER, Strain/Sex: SYRIAN/MALE,FEMALE, Route: INTRAVENOUS, Dose: 20 MG/KG BW, SINGLE DOSE, Tumor Site: Type of Lesion: LIVER: ADENOCARCINOMA, HEPATOCELLULAR CARCINOMA, VASCULAR TUMOR, CYSTADENOMA AND CYSTIC LESIONS, INTESTINES (LARGE): ADE)?
Its carcinogen call is “active; positive”.

And the carcinogen call (Species: RAT, Strain/Sex: SPRAGUE-DAWLEY/MALE, Route: INTRAVENOUS, Dose: 25 MG/KG 1/WK FOR 5 WK, Tumor Site: Type of Lesion: INTESTINES (JEJUNUM OR ILEUM), INTESTINES (COLON OR RECTUM), CECUM, DUODENUM, Tumor Site: Type of Lesion: INTESTINES (JEJUNUM OR ILEUM), INTESTINES (COLON OR RECTUM), CECUM, DUODENUM)?
The carcinogen call was “active; positive”.

What about the carcinogen call (Species: RAT, Strain/Sex: SPRAGUE-DAWLEY/MALE, Route: INTRAVENOUS, Dose: 25 MG/KG 1/WK FOR 15 WK, Tumor Site: Type of Lesion: INTESTINES (JEJUNUM OR ILEUM), INTESTINES (COLON OR RECTUM), CECUM, DUODENUM, Tumor Site: Type of Lesion: INTESTINES (JEJUNUM OR ILEUM), INTESTINES (COLON OR RECTUM), CECUM, DUODENUM) of the same molecule?
The carcinogen call was “active; positive”.

And the carcinogen call (Species: RAT, Strain/Sex: SPRAGUE-DAWLEY/MALE, Route: INTRAVENOUS, Dose: 25 MG/KG, SINGLE DOSE, Tumor Site: Type of Lesion: INTESTINES (JEJUNUM OR ILEUM), INTESTINES (COLON OR RECTUM))?
Its carcinogen call is “active; positive”.

For `O=C[C@H](O)[C@@H](O)[C@H](O[C@@H]1O[C@H](CO)[C@H](O)[C@H](O)[C@H]1O)[C@H](O)CO`, which carcinogen call (Species: RAT, Strain/Sex: SPF/FEMALE, Route: ORAL, Dose: 0, 20% IN DIET FOR DURATION OF STUDY ADMINISTERED TO OFFSPRING OF RATS FED THE SAME DIETS (STUDY DURATION: 130 WK)) is on record?
The carcinogen call was “inactive; negative”.

What about the carcinogen call (Species: RAT, Strain/Sex: SPF/MALE, Route: ORAL, Dose: 0, 20% IN DIET FOR DURATION OF STUDY ADMINISTERED TO OFFSPRING OF RATS FED THE SAME DIETS (STUDY DURATION: 130 WK), Tumor Site: Type of Lesion: ADRENAL GLAND: MEDULLARY TUMORS, TESTES: LEYDIG CELL TUMOR) of the same molecule?
The carcinogen call was “active; positive”.

For `CSC(=O)c1cccc2nnsc12`, which carcinogen call (Species: Mouse, Strain/Sex: Tif:MAGf (SPF) (NIH x MAG hybrid)/Female, Route: Oral (diet), Dose: 0, 10, 100, 2000, 6000 ppm (0; 1.14; 10.8; 234; 696 mg/kg/day) for 18 mo, Dose: 0, 10, 100, 2000, 6000 ppm (0; 1.14; 10.8; 234; 696 mg/kg/day) for 18 mo) is on record?
Its carcinogen call is “inactive; negative”.

And the carcinogen call (Species: Mouse, Strain/Sex: Tif:MAGf (SPF) (NIH x MAG hybrid)/Male, Route: Oral, Dose: 0, 10, 100, 2000, 6000 ppm (0; 1.14; 11.1; 237; 698 mg/kg/day) in feed for 18 mo, Dose: 0, 10, 100, 2000, 6000 ppm (0; 1.14; 11.1; 237; 698 mg/kg/day) in feed for 18 mo)?
The carcinogen call was “inactive; negative”.

What about the carcinogen call (Species: Rat, Strain/Sex: Tif:Ralf (SPF) (Rll/1 x Rll/2 hybrid)/Female, Route: Oral, Dose: 0, 20, 200, 2500, 7500 ppm (0; 0.90; 9.08; 111; 388 mg/kg/day) in feed for 2 yr, Dose: 0, 20, 200, 2500, 7500 ppm (0; 0.90; 9.08; 111; 388 mg/kg/day) in feed for 2 yr) of the same molecule?
Its carcinogen call is “inactive; negative”.

What about the carcinogen call (Species: Rat, Strain/Sex: Tif:Ralf (SPF) (Rll/1 x Rll/2 hybrid)/Male, Route: Oral, Dose: 0, 20, 200, 2500, 7500 ppm (0; 0.77; 7.77; 96.9; 312 mg/kg/day) in feed for 2 years, Dose: 0, 20, 200, 2500, 7500 ppm (0; 0.77; 7.77; 96.9; 312 mg/kg/day) in feed for 2 years, Tumor Site: Type of Lesion: Small intestine: Mucinous carcinoma (1/60; 1/59; 2/59 at three highest doses)) of the same molecule?
Its carcinogen call is “active; positive; dpr reviewer notes that only 1 case of mucinous carcinoma has been see”.

`Cc1cccc(OCC(O)CNC(C)(C)C)c1[N+](=O)[O-]` (centres undefined) was tested. Which carcinogen call (Species: RAT, Strain/Sex: WISTAR/FEMALE, Route: ORAL, Dose: 0, 25, 50, 100 MG/KG DAILY BY GAVAGE FOR 3 OR 6 MO, Dose: 0, 25, 50, 100 MG/KG DAILY BY GAVAGE FOR 3 OR 6 MO, Tumor Site: Type of Lesion: LIVER: NEOPLASTIC NODULE, HEPATOCELLULAR CARCINOMA) did it give?
The carcinogen call was “active; positive”.

How did the carcinogen call (Species: MOUSE, Strain/Sex: B6C3F1/FEMALE, Route: GAVAGE, Dose: 0, 60, 120 MG/KG BODY WT IN CORN OIL 5 D/WK FOR 103 WK, Dose: 0, 60, 120 MG/KG BODY WT IN CORN OIL 5 D/WK FOR 103 WK) turn out when `Clc1ccccc1Cl` was run?
The carcinogen call was “inactive; negative”.

And the carcinogen call (Species: MOUSE, Strain/Sex: B6C3F1/MALE, Route: GAVAGE, Dose: 0, 60, 120 MG/KG BODY WT IN CORN OIL 5 D/WK FOR 103 WK, Dose: 0, 60, 120 MG/KG BODY WT IN CORN OIL 5 D/WK FOR 103 WK)?
Its carcinogen call is “inactive; negative”.

What about the carcinogen call (Species: RAT, Strain/Sex: F344/FEMALE, Route: GAVAGE, Dose: 0, 60, 120 MG/KG BODY WT IN CORN OIL 5 D/WK FOR 103 WK, Dose: 0, 60, 120 MG/KG BODY WT IN CORN OIL 5 D/WK FOR 103 WK) of the same molecule?
The carcinogen call was “inactive; negative”.

And the carcinogen call (Species: RAT, Strain/Sex: F344/MALE, Route: GAVAGE, Dose: 0, 60, 120 MG/KG BODY WT IN CORN OIL 5 D/WK FOR 103 WK, Dose: 0, 60, 120 MG/KG BODY WT IN CORN OIL 5 D/WK FOR 103 WK)?
The carcinogen call was “inactive; negative”.

Which carcinogen call (Species: MOUSE, Strain/Sex: DDNI/MALE, Route: ORAL, Dose: 0, 40, 60 UG IN DIET, 1/D FOR LIFE, Dose: 0, 40, 60 UG IN DIET, 1/D FOR LIFE, Tumor Site: Type of Lesion: HEMATOPOIETIC SYSTEM: RETICULOENDOTHELIOMA, LIVER: CARCINOMA, HEPATOCELLULAR ADENOMA) does the source give for `CC[C@H]1NC(=O)[C@@H]2[C@H](Cl)[C@H](Cl)CN2C(=O)[C@@H](CO)NC(=O)C[C@H](c2ccccc2)NC(=O)[C@H](CO)NC1=O` here?
The carcinogen call was “active; positive”.
